Results reported in article PMC2806030, “Inhibition of mammalian S6 kinase by resveratrol suppresses autophagy” (Aging (Albany NY), 2009).

Legend:
Test in all cases: biochemical
Design in all cases: Upstate KinaseProfiler in vitro kinase activity assay, per cent of DMSO control
Settings in all cases: read-out: Activity (% of Control)
PKBß(h) = molecular target: T1, PKBß(h) (Homo sapiens, UniProt P31751)
T1 construct: gene AKT2
Description: (§1) Kinase profile and kinase assay. A Kinase profile against 100 kinases listed for resveratrol at 20 μM was generated utilizing Upstate's KinaseProfiler™ service. Assay protocols for each kinase are available from Upstate (Lake Placid, NY). In vitro kinase assay was performed as described previously. Briefly, HEK293 cells were transfected with HA-S6K1 wt, HA-S6K1 K100R, or vector as indicated. Cells were treated with 1 μg/ml insulin for 10 minutes prior to harvesting in PBS + 0.5% NP-40 + protease and phosphatase inhibitors. 125 μg of lysate per sample was immunoprecipitated using 0.5 μg/sample of anti-HA High-Affinity (Roche, Basel Switzerland). Beads from immunoprecipitations were washed three times in lysis buffer and once in kinase buffer, and kinase assays were performed with recombinant GST-S6 as substrate (1 μg per assay). In the indicated lanes varying doses of resveratrol or DMSO control were added to the reaction prior to addition of the GST-S6 substrate. All samples were subjected to SDS-PAGE, and 32P incorporation was quantified by using a Bio-Rad (Hercules, CA) Phosphor-Imager and subsequent analysis with ImageJ (NIH).  Figure 4. Resveratrol inhibits S6K1 in vitro. (A) Structural similarity between resveratrol and quercetin, a known kinase inhibitor. (B) Kinase inhibition profile for resveratrol at 20 μM obtained using KinaseProfiler™ (Upstate). Dashed line represents 100% activity as compared to control. Black filled-in bar on the graph indicates S6K1. Complete data set is provided in Supplementary Table 1. Error bars represent s.d.m. (C) Phosphorylation of recombinant GST-tagged S6 by immunoprecipitated HA-S6K1 under increasing concentrations of resveratrol (Res). Autoradiograph depicts S6K1 phosphorylation of GST-S6. (D) Average of three separate kinase assay experiments as performed in (C). Densitometry was performed using NIH ImageJ. Error bars represent s.e.m. […] Therefore, we hypothesized that the effect of resveratrol on autophagy could be related to inhibition of one or more upstream kinases. To test this, we performed an in vitro kinase screen and determined an inhibition profile for resveratrol. […] With the exception of S6K1, these kinases play primary roles in the hematopoietic system, and were thus viewed as unlikely to have been responsible for the effect we were studying. […] On the other hand, S6K1 is known to play a requisite role in the regulation of autophagy in Drosophila, making it a promising candidate for the in vivo target of resveratrol that is responsible for inhibition of autophagy.

Fms(h) = molecular target: T2, Fms(h) (Homo sapiens, UniProt P07333)
T2 construct: gene CSF1R
Description: as §1

MSK1(h) = molecular target: T3, MSK1(h) (Homo sapiens, UniProt O75582)
T3 construct: gene RPS6KA5
T3 sequence (O75582 whole entry): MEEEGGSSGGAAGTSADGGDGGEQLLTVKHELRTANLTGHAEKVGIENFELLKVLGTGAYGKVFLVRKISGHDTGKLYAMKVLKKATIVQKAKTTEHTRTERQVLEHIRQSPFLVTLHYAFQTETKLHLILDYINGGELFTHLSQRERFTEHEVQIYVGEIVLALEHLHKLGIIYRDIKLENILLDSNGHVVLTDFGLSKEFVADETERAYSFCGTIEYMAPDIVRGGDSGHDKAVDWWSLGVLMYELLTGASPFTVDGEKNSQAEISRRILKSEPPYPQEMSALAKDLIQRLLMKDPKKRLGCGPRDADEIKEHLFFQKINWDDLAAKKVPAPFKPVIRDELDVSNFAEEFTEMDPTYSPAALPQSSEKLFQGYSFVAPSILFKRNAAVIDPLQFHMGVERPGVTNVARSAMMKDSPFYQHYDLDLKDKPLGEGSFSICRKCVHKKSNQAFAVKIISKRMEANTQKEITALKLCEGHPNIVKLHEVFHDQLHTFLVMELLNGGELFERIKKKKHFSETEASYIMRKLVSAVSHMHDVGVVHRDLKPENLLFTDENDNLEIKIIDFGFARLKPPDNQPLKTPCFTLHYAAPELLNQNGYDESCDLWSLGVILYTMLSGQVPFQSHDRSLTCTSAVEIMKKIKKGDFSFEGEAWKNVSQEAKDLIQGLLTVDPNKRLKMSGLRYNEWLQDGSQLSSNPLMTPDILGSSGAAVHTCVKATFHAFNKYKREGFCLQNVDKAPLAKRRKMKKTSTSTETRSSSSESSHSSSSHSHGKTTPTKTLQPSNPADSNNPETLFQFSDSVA
Description: as §1

IR(h) = molecular target: T4, IR(h) (Homo sapiens, UniProt P06213)
T4 construct: gene INSR
T4 sequence (P06213 whole entry): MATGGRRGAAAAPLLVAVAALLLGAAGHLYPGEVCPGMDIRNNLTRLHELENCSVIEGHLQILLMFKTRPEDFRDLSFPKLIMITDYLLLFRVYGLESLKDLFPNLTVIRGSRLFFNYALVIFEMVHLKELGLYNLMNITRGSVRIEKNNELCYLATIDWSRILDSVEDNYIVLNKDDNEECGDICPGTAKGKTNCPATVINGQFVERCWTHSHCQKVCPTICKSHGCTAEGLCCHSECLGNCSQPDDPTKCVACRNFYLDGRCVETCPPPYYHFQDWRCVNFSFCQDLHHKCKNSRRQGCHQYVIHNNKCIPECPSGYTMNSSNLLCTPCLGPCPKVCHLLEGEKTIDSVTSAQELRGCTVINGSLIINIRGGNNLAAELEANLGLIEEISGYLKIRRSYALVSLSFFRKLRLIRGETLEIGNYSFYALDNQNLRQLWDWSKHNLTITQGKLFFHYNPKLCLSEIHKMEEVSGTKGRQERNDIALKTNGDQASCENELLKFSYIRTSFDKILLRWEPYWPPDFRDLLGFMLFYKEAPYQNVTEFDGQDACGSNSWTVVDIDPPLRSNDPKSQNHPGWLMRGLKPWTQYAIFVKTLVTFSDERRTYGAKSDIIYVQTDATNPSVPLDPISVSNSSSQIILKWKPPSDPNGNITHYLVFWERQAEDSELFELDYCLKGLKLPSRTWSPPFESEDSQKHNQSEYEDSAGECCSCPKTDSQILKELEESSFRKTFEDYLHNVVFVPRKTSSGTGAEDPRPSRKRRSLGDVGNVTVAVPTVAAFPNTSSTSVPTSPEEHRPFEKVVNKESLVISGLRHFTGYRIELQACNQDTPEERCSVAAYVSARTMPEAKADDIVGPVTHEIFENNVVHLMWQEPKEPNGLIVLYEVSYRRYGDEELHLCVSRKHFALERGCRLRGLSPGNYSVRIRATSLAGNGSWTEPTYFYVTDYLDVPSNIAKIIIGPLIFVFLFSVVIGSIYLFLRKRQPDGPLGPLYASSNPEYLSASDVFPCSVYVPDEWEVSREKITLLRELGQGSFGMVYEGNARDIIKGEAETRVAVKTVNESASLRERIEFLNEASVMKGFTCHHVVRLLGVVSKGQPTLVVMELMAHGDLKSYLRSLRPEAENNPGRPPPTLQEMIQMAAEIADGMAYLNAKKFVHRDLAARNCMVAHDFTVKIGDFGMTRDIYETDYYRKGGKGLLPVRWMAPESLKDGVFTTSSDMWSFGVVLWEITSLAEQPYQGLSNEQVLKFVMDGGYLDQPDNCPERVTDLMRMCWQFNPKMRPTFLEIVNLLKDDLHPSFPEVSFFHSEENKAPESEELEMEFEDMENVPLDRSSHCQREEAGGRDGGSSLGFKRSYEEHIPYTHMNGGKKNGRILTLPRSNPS
Description: as §1

PKA(h) = molecular target: T5, PKA(h) (Homo sapiens, UniProt P17612)
T5 construct: gene PRKACA
Description: as §1

GSK3α(h) = molecular target: T6, GSK3α(h) (Homo sapiens, UniProt P49840)
T6 construct: gene GSK3A
Description: as §1

CDK5/p35(h) = molecular target: T7, CDK5/p35(h) (Homo sapiens, UniProt Q00535)
T7 construct: p35
Description: as §1

Met(h) = Met(h) (Homo sapiens, UniProt P08581)
Description: as §1

PAK3(h) = PAK3(h) (Homo sapiens, UniProt O75914)
Sequence of PAK3(h) (O75914 whole entry): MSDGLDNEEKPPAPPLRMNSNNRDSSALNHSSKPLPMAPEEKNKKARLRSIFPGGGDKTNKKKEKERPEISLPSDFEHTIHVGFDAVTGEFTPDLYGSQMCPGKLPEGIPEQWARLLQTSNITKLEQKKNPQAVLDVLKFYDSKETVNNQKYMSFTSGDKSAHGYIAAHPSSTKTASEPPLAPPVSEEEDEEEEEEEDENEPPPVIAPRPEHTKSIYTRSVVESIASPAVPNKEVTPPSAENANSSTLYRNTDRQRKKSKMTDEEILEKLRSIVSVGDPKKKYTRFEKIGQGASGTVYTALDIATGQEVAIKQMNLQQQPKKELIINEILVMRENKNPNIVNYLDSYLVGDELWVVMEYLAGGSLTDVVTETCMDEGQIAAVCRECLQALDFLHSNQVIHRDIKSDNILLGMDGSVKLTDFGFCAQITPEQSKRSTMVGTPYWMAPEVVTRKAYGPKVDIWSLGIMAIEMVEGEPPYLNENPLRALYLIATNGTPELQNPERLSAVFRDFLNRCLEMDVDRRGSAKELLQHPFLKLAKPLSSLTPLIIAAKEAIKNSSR
Description: as §1

SAPK4(h) = molecular target: T8, SAPK4(h) (Homo sapiens, UniProt O15264)
T8 construct: gene MAPK13
Description: as §1

TAK1(h) = molecular target: T9, TAK1(h) (Homo sapiens, UniProt O43318)
T9 construct: gene MAP3K7
Description: as §1

CDK9/cyclin T1(h) = CDK9/cyclin T1(h) (Homo sapiens, UniProt P50750)
Description: as §1

EGFR(h) = EGFR(h) (Homo sapiens, UniProt P00533)
Sequence of EGFR(h) (P00533 whole entry): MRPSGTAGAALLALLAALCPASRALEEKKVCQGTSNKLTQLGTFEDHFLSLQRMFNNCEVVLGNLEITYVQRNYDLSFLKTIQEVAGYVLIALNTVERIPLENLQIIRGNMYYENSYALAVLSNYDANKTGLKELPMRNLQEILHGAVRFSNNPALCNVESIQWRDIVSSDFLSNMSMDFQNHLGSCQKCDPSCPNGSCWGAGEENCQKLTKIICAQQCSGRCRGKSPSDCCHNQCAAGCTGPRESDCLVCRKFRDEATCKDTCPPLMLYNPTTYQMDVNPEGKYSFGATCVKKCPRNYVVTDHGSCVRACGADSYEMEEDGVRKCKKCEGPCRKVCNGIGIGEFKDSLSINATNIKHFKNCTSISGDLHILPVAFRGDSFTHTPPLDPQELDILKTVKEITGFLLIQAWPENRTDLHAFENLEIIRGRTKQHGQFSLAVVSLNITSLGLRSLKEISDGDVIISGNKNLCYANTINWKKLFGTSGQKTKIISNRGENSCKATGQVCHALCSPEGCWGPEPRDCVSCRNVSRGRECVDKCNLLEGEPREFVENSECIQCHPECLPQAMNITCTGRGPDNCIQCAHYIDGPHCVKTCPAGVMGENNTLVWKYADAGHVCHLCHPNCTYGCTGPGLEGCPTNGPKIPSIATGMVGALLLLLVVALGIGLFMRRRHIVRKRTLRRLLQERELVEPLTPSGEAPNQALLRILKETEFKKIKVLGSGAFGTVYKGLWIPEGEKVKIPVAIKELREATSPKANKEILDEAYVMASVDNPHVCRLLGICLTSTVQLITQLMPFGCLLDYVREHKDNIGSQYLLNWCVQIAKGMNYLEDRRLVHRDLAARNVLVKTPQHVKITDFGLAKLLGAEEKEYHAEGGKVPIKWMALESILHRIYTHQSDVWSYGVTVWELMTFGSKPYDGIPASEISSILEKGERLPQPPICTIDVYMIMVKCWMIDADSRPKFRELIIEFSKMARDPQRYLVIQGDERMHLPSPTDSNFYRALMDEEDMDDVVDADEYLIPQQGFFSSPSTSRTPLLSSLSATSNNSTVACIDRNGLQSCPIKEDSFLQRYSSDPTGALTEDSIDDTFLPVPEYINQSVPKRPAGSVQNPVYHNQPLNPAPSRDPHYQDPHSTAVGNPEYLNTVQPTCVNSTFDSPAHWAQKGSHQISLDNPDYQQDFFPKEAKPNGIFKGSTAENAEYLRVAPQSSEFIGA
Description: as §1

JNK2α2(h) = molecular target: T10, JNK2α2(h) (Homo sapiens, UniProt P45984)
T10 construct: gene MAPK9; isoform alpha2
T10 sequence (P45984 whole entry, canonical isoform): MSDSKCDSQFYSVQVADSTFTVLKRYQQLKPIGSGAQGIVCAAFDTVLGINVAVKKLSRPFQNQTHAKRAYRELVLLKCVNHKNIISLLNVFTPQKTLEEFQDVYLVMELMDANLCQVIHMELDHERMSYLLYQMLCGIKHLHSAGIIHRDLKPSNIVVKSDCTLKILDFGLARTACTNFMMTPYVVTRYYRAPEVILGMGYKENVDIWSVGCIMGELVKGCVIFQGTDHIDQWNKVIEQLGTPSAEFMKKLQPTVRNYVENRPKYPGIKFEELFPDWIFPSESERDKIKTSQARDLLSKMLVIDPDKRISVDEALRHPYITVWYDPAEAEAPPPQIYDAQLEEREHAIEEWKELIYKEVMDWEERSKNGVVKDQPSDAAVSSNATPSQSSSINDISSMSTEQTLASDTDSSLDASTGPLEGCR
Description: as §1

PKCθ(h) = molecular target: T11, PKCθ(h) (Homo sapiens, UniProt Q04759)
T11 construct: gene PRKCQ
T11 sequence (Q04759 whole entry): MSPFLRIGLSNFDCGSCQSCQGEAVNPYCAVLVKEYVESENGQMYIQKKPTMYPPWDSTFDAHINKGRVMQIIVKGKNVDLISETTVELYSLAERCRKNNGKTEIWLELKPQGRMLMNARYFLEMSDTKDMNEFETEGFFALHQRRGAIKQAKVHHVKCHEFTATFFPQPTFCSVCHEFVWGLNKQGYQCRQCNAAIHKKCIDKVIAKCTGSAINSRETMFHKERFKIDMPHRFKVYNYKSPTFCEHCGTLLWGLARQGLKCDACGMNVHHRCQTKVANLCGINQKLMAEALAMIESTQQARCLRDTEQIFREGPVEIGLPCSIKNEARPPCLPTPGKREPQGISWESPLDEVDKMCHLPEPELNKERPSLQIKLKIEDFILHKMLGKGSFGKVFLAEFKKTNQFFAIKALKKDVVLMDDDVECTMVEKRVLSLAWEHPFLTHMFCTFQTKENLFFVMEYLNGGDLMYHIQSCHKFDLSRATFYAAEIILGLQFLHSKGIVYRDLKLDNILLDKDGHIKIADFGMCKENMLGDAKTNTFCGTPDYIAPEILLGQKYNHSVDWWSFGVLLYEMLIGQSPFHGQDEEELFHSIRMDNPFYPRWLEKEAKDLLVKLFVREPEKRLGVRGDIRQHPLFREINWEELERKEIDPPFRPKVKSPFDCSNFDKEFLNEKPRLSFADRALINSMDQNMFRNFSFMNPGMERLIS
Description: as §1

IKKα(h) = molecular target: T12, IKKα(h) (Homo sapiens, UniProt O15111)
T12 construct: gene CHUK
Description: as §1

NEK3(h) = NEK3(h) (Homo sapiens, UniProt P51956)
Description: as §1

SGK2(h) = SGK2(h) (Homo sapiens, UniProt Q9HBY8)
Description: as §1

Oc1ccc(/C=C/c2cc(O)cc(O)c2)cc1 [Res, resveratrol]
remaining activity at 20 µM (PKBß(h)): 105 ± 3%
remaining activity at 20 µM (Fms(h)): 61 ± 2%
remaining activity at 20 µM (MSK1(h)): 58 ± 1%
remaining activity at 20 µM (IR(h)): 71 ± 5%
remaining activity at 20 µM (PKA(h)): 100%
remaining activity at 20 µM (GSK3α(h)): 79 ± 4%
remaining activity at 20 µM (CDK5/p35(h)): 77 ± 2%
remaining activity at 20 µM (Met(h)): 114 ± 5%
remaining activity at 20 µM (PAK3(h)): 46%
remaining activity at 20 µM (SAPK4(h)): 92 ± 4%
remaining activity at 20 µM (TAK1(h)): 105 ± 3%
remaining activity at 20 µM (CDK9/cyclin T1(h)): 70 ± 3%
remaining activity at 20 µM (EGFR(h)): 90 ± 5%
remaining activity at 20 µM (JNK2α2(h)): 110 ± 4%
remaining activity at 20 µM (PKCθ(h)): 99 ± 5%
remaining activity at 20 µM (IKKα(h)): 40 ± 1%
remaining activity at 20 µM (NEK3(h)): 96 ± 8%
remaining activity at 20 µM (SGK2(h)): 70 ± 1%
